For 13 compounds, pest or weed control results are on record in US20230148599A1, “FUNGICIDAL MIXTURES CONTAINING PYRAZOLE DERIVATIVES” (FMC Corporation, priority 2020, published 2023).

Format in all cases: in vivo
For one test, the system named is Alternaria solani. Put plainly: Test F: tomato early blight, preventive spray on tomato seedlings. Particulars: 120 h, 100 = 100% disease control, 0 = no control, read-out: Test F disease control rating. An excerpt: (§1) General protocol for preparing test suspensions for Tests A-F: the test compounds were first dissolved in acetone in an amount equal to 3% of the final volume and then suspended at the desired concentration (in ppm) in acetone and purified water (50/50 mix by volume) containing 250 ppm of the surfactant PEG400 (polyhydric alcohol esters). The resulting test suspensions were then used in Tests A-F.
The test suspension was sprayed to the point of run-off on tomato seedlings. The following day the seedlings were inoculated with a spore suspension of Alternaria solani (the causal agent of tomato early blight) and incubated in a saturated atmosphere at 27° C. for 48 h, and then moved to a growth chamber at 20° C. for 3 days, after which time visual disease ratings were made.
(§2) A rating of 100 indicates 100% disease control and a rating of 0 indicates no disease control (relative to the controls). A dash (−) indicates the compound was not tested.

A further test concerns Phakopsora pachyrhizi. The test can be described thus: Test D: Asian soybean rust, preventive spray on soybean seedlings. To be noted: 216 h, 100 = 100% disease control, 0 = no control, read-out: Test D disease control rating.
Source text: as §1
The test solution was sprayed to the point of run-off on soybean seedlings. The following day the seedlings were inoculated with a spore suspension of Phakopsora pachyrhizi (the causal agent of Asian soybean rust) and incubated in a saturated atmosphere at 22° C. for 24 h and then moved to a growth chamber at 22° C. for 8 days, after which time visual disease ratings were made.
as §2

The test system of a further test is Septoria tritici. Put plainly: Test A: wheat leaf blotch, preventive spray on wheat seedlings. To be noted: Zymoseptoria tritici, 456 h, 100 = 100% disease control, 0 = no control, read-out: Test A disease control rating.
Source text: as §1
The test solution was sprayed to the point of run-off on wheat seedlings. The following day the seedlings were inoculated with a spore suspension of Septoria tritici (the causal agent of wheat leaf blotch) and incubated in a saturated atmosphere at 24° C. for 48 h, and then moved to a growth chamber at 20° C. for 17 days, after which time disease ratings were made.
as §2

The test system of test [1] is Puccinia recondita f. sp. tritici. Put plainly: Test B: wheat leaf rust, preventive spray on wheat seedlings. To be noted: 192 h, 100 = 100% disease control, 0 = no control, read-out: Test B disease control rating.
Source text: as §1
The test solution was sprayed to the point of run-off on wheat seedlings. The following day the seedlings were inoculated with a spore suspension of Puccinia recondita f. sp. tritici (the causal agent of wheat leaf rust) and incubated in a saturated atmosphere at 20° C. for 24 h, and then moved to a growth chamber at 20° C. for 7 days, after which time disease ratings were made.
as §2

The next test relates to Botrytis cinerea. The test can be described thus: Test E: tomato Botrytis, preventive spray on tomato seedlings. To be noted: 120 h, 100 = 100% disease control, 0 = no control, read-out: Test E disease control rating.
Source text: as §1
The test suspension was sprayed to the point of run-off on tomato seedlings. The following day the seedlings were inoculated with a spore suspension of Botrytis cinerea (the causal agent of tomato Botrytis) and incubated in a saturated atmosphere at 20° C. for 48 h, and then moved to a growth chamber at 24° C. for 3 days, after which time visual disease ratings were made.
as §2

As for `Cc1nn(C)c(Nc2c(F)cccc2[N+](=O)[O-])c1-c1c(F)cc(F)cc1Br` [Compound 1, 4-(2-bromo-4,6-difluorophenyl)-N-(2-fluoro-6-nitrophenyl)-1,3-dimethyl-1H-pyrazol-5-amine], the pest or weed control at 50 ppm in the test on Alternaria solani is 99%; with Phakopsora pachyrhizi it was 84%; with Septoria tritici, 100%; in test [1], 100%; with Botrytis cinerea, 100%.
As to `Cc1nn(C)c(Nc2c(Cl)cc(F)cc2[N+](=O)[O-])c1-c1ccc(C#N)cc1Cl` [Compound 18, 3-chloro-4-[5-[(2-chloro-4-fluoro-6-nitrophenyl)amino]-1,3-dimethyl-1H-pyrazol-4-yl]benzonitrile], the pest or weed control at 50 ppm was 99% in the test with Alternaria solani; 92% in the test with Phakopsora pachyrhizi; 100% in the test with Septoria tritici; 100% in test [1]; 100% in the test with Botrytis cinerea.
Consider `Cc1nn(C)c(Nc2c(Cl)cc(F)cc2[N+](=O)[O-])c1-c1ccc(F)cc1Cl` [Compound 19, N-(2-chloro-4-fluoro-6-nitrophenyl)-4-(2-chloro-4-fluorophenyl)-1,3-dimethyl-1H-pyrazol-5-amine], for which the pest or weed control at 50 ppm in the test on Alternaria solani worked out at 99%; in the test with Phakopsora pachyrhizi, 98%; in the test with Septoria tritici it was 100%; in test [1], 100%; with Botrytis cinerea, 100%.
As to `COc1cc(F)c(Nc2c(-c3c(F)cccc3Cl)c(C)nn2C)c([N+](=O)[O-])c1` [Compound 23, 4-(2-chloro-6-fluorophenyl)-N-(2-fluoro-4-methoxy-6-nitrophenyl)-1,3-dimethyl-1H-pyrazol-5-amine], the pest or weed control at 50 ppm in the test with Alternaria solani worked out at 99%; in the test on Phakopsora pachyrhizi it was 99%; in the test on Septoria tritici, 100%; in test [1] it was 100%; in the test with Botrytis cinerea, 97%.
For the compound `COc1cc(F)c(Nc2c(-c3ccc(F)cc3F)c(C)nn2C)c([N+](=O)[O-])c1` [Compound 57, 4-(2,4-difluorophenyl)-N-(2-fluoro-4-methoxy-6-nitrophenyl)-1,3-dimethyl-1H-pyrazol-5-amine], the pest or weed control at 50 ppm amounted to 100% in the test with Alternaria solani; 96% with Phakopsora pachyrhizi; 100% in the test with Septoria tritici; 100% in test [1]; 100% in the test on Botrytis cinerea.
For `Cc1nn(C)c(Nc2c(F)cccc2[N+](=O)[O-])c1-c1ccc(F)cc1Br` [Compound 60, 4-(2-bromo-4-fluorophenyl)-N-(2-fluoro-6-nitrophenyl)-1,3-dimethyl-1H-pyrazol-5-amine], the pest or weed control at 10 ppm with Alternaria solani worked out at 75%; in the test with Phakopsora pachyrhizi, 0%; in the test on Septoria tritici, 99%; in test [1], 100%; with Botrytis cinerea, 99%. For the same compound, the pest or weed control at 50 ppm worked out at 99% in the test on Alternaria solani; 97% in the test with Phakopsora pachyrhizi; 100% in the test with Septoria tritici; 100% in test [1]; 99% in the test on Botrytis cinerea.
Regarding `Cc1nn(C)c(Nc2c(F)cc(Br)cc2[N+](=O)[O-])c1-c1ccc(F)cc1Cl` [Compound 61, N-(4-bromo-2-fluoro-6-nitrophenyl)-4-(2-chloro-4-fluorophenyl)-1,3-dimethyl-1H-pyrazol-5-amine], the pest or weed control at 50 ppm was found to be 99% in the test on Alternaria solani; 84% in the test on Phakopsora pachyrhizi; 100% in the test with Septoria tritici; 100% in test [1]; 99% in the test on Botrytis cinerea.
For `Cc1nn(C)c(Nc2c(F)cccc2[N+](=O)[O-])c1-c1c(F)cc(F)cc1Cl` [Compound 68, 4-(2-chloro-4,6-difluorophenyl)-N-(2-fluoro-6-nitrophenyl)-1,3-dimethyl-1H-pyrazol-5-amine], the pest or weed control at 10 ppm in the test on Alternaria solani was 98%; in the test on Phakopsora pachyrhizi, 32%; in the test with Septoria tritici, 100%; in test [1], 100%; in the test with Botrytis cinerea, 100%. Moreover, the pest or weed control at 50 ppm with Alternaria solani was determined as 99%; in the test with Phakopsora pachyrhizi it was 99%; with Septoria tritici, 100%; in test [1], 100%; in the test with Botrytis cinerea, 100%.
Regarding `CCc1nn(C)c(Nc2c(F)cccc2[N+](=O)[O-])c1-c1ccc(F)cc1Cl` [Compound 72, 4-(2-chloro-4-fluorophenyl)-N-(2-fluoro-6-nitrophenyl)-3-ethyl-1-methyl-1H-pyrazol-5-amine], the pest or weed control at 10 ppm with Alternaria solani worked out at 63%; with Phakopsora pachyrhizi it was 12%; with Septoria tritici, 100%; in test [1], 85%; in the test with Botrytis cinerea it was 98%. The pest or weed control at 50 ppm was 99% with Alternaria solani; 31% with Phakopsora pachyrhizi; 100% with Septoria tritici; 100% in test [1]; 98% in the test with Botrytis cinerea.
Take `COc1ccc(-c2c(C)nn(C)c2Nc2c(Cl)cc(F)cc2[N+](=O)[O-])c(Cl)c1` [Compound 73, N-(2-chloro-4-fluoro-6-nitrophenyl)-4-(2-chloro-4-methoxyphenyl)-1,3-dimethyl-1H-pyrazol-5-amine]: the pest or weed control at 50 ppm was 97% in the test on Alternaria solani; 98% in the test on Phakopsora pachyrhizi; 100% in the test with Septoria tritici; 100% in test [1]; 99% in the test with Botrytis cinerea.
Take `Cc1cc(F)c(Nc2c(-c3ccc(F)cc3Cl)c(C)nn2C)c([N+](=O)[O-])c1` [Compound 93, 4-(2-chloro-4-fluorophenyl)-N-(2-fluoro-4-methyl-6-nitrophenyl)-1,3-dimethyl-1H-pyrazol-5-amine]: the pest or weed control at 10 ppm was determined as 99% in the test with Alternaria solani; 87% with Phakopsora pachyrhizi; 99% in the test with Septoria tritici; 100% in test [1]; 99% in the test with Botrytis cinerea. For the same compound, the pest or weed control at 50 ppm amounted to 99% with Alternaria solani; 100% in the test on Phakopsora pachyrhizi; 100% with Septoria tritici; 100% in test [1]; 100% in the test with Botrytis cinerea.
Regarding `Cc1nn(C)c(Nc2ccc(F)cc2[N+](=O)[O-])c1-c1ccc(F)cc1Cl` [Compound 111, 4-(2-chloro-4-fluorophenyl)-N-(4-fluoro-2-nitrophenyl)-1,3-dimethyl-1H-pyrazol-5-amine], the pest or weed control at 50 ppm with Alternaria solani came to 93%; in the test on Phakopsora pachyrhizi, 0%; in the test with Septoria tritici it was 100%; in test [1], 99%; with Botrytis cinerea, 100%.
As to `Cc1nn(C)c(Nc2c(F)cccc2[N+](=O)[O-])c1-c1ccc(C#N)cc1Cl` [Compound 113, 3-chloro-4-[5-[(2-fluoro-6-nitrophenyl)amino]-1,3-dimethyl-1H-pyrazol-4-yl]benzonitrile], the pest or weed control at 50 ppm in the test on Alternaria solani was 99%; with Phakopsora pachyrhizi, 13%; in the test on Septoria tritici it was 100%; in test [1], 99%; with Botrytis cinerea, 99%.
